# Experimental data as given in patent US11098029B2, “5-alkyl pyrrolidine orexin receptor agonists” (Merck Sharp & Dohme Corp., priority 2019, dated 2021).
# Biological target: human OX2R (Homo sapiens (Human), UniProt O43614)
# Test: IPOne (IP-One, Cisbio) orexin receptor agonist assay in CHO cells expressing human OX2R
# Details: for Emax: CHO; for Emax / Emax (%): hOX2R_IP, percentage of mean max effect of a reference compound at 1 uM (100% activity vs Orexin A)
# Protocol: Both the OX1R and/or OX2R G-coupled protein receptors (GPCRs) couple through the Gaq signaling pathway, which ultimately promotes calcium mobilization via inositol triphosphate (IP3) production.
# In a typical experiment, the OX1 and OX2 receptor agonist activity is determined in accordance with the following general experimental method. Chinese hamster ovary (CHO) cells expressing human OX1R and/or the human OX2R were grown in Iscove's modified DMEM containing glutaMAX®, 1% G418, 100 U/mL penicillin, 100 μg/mL streptomycin and 10% heat-inactivated qualified fetal bovine serum (FBS). […] During this incubation, IP-one detection reagents were prepared (38:1:1 lysis buffer:D2:AB-cryptate reagents).
# For each compound, data were fit to a four parameter logistic fit (ActivityBase software) and the EC50 was reported as the inflection point of the resulting curve.
# Chain of human OX2R (O43614 whole entry): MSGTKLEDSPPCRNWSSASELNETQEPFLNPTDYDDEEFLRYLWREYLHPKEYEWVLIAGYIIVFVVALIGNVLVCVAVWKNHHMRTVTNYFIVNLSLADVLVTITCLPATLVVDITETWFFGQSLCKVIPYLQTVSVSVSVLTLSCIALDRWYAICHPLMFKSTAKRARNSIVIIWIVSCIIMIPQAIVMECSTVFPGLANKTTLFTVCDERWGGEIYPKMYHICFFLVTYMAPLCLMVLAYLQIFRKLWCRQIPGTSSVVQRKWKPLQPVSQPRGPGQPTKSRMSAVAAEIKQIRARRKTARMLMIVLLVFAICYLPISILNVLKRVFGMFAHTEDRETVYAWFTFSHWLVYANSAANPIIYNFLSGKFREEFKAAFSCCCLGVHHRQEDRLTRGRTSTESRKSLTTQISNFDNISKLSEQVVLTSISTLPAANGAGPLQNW
Compound,IC50,Emax,Emax (%)
"COC(=O)N1[C@H](C)C[C@H](NS(=O)(=O)N(C)CCS(C)(=O)=O)[C@@H]1COC1CCC(c2cccc(F)c2)CC1 (stereo partly drawn) [Example 57, methyl (2R,3S,5R)-2-((((1s,4S)-4-(3-fluorophenyl)cyclohex-yl)oxy)methyl)-5-methyl-3-((N-methyl-N-(2-(methyslulfonyl)-ethyl)sulfamoyl)amino) pyrrolidine-1-carboxylate]",,,100%
"CC(C)C1CCC(OC[C@H]2[C@@H](NS(C)(=O)=O)C[C@@H](C)N2C(=O)OCCF)CC1 (stereo partly drawn) [Example 10, 2-fluoroethyl (2R,3S,5R)-2-(((4-isopropylcyclohexyl)oxy)meth-yl)-5-methyl-3-(methylsulfonamido)pyrrolidine-1-carboxylate]",,99%,
"COC(=O)N1[C@H](C)C[C@H](NS(C)(=O)=O)[C@@H]1CO[C@H]1CC[C@@H](c2cc(F)ccc2F)CC1 [Example 20, methyl (2R,3S,5R)-2-((((1r,4R)-4-(2,5-difluorophenyl)cyclo-hexyl)oxy)methyl)-5-methyl-3-(methylsulfona-mido)pyrrolidine-1-carboxylate]",,102%,
"COC(=O)N1[C@H](C)C[C@H](NS(=O)(=O)N(C)C)[C@@H]1CO[C@@H]1CC[C@H](c2ccccc2)CC1F (stereo partly drawn) [Example 30, methyl (2R,3S,5R)-3-((N,N-dimethylsulfamoyl)amino)-2-((((1R,4S)-2-fluoro-4-phenylcyclohexyl)oxy)methyl)-5-methylpyrrolidine-1-carboxylate]",,100%,
"COC(=O)N1[C@H](C)C[C@H](NS(C)(=O)=O)[C@@H]1CO[C@H]1CC[C@@H](c2ccccc2)CC1 [Example 15, methyl (2R,3S,5R)-5-methyl-3-(methylsulfonamido)-2-((((1s,4S)-4-phenylcyclohexyl)oxy)-methyl)pyrrolidine-1-carboxylate]",,,101%
"COC(=O)N1[C@H](C)C[C@H](NS(C)(=O)=O)[C@@H]1CO[C@H]1CC[C@@H](c2ccccc2C(F)(F)F)CC1 [Example 27, methyl (2R,3S,5R)-5-methyl-3-(methylsulfonamido)-2-((((1r,4R)-4-(2-(trifluorometh-yl)phenyl)cyclohexyl)oxy)methyl)pyrrolidine-1-carboxylate]",,100%,
"COC(=O)N1[C@H](C)C[C@H](NS(=O)(=O)N(C)C)[C@@H]1CO[C@H]1CC[C@@H](c2ccccc2)CC1 [Example 19, methyl (2R,3S,5R)-3-((N,N-dimethylsulfamoyl)amino)-5-methyl-2-((((1s,4S)-4-phenylcyclohexyl)-oxy)methyl)pyrrolidine-1-carboxylate]",,,100%
"COC(=O)N1C(CCO)CC(NS(C)(=O)=O)C1CO[C@H]1CC[C@@H](c2ccccc2)CC1 (stereo partly drawn) [Example 49, methyl (CIS)-5-(2-hydroxyethyl)-3-(methylsulfonamido)-2-((((CIS)-4-phenylcyclohexyl)oxy)methyl)pyrrolidine-1-carboxylate]",,,102%
"CC(C)OC(=O)N1[C@H](C)C[C@H](NS(C)(=O)=O)[C@@H]1COC1CCC(C(C)C)CC1 (stereo partly drawn) [Example 5, isopropyl (2R,3S,5R)-2-(((4-isopropylcyclohexyl)oxy)meth-yl)-5-methyl-3-(methylsulfonamido)pyrrolidine-1-carboxylate]",,101%,

# Continued, values first:
IC50,Emax,Emax (%),Compound
0.76 nM,99%,,"COC(=O)N1[C@H](C)C[C@H](NS(=O)(=O)N(C)C)[C@@H]1CO[C@H]1CCC(c2cccc(F)c2)C(O)C1 (stereo partly drawn) [Example 36, methyl (2R,3S,5R)-3-((N,N-dimethylsulfamoyl)amino)-2-((((1S)-4-(3-fluorophenyl)-3-hydroxycyclohexyl)oxy)methyl)-5-methylpyrrolidine-1-carboxylate]"
,,98%,"COC(=O)N1[C@H](C)C[C@H](NS(C)(=O)=O)[C@@H]1CO[C@H]1CC[C@H](c2ncccn2)CC1 [Example 69, Methyl (2R,3S,5R)-5-methyl-3-(methylsulfonamido)-2-((((1r,4R)-4-(pyrimidin-2-yl)cyclohexyl)oxy)methyl)pyrrolidine-1-carboxylate]"
,,101%,methyl (CIS)-5-ethynyl-3-(methylsulfonamido)-2-((((CIS)-4-phenylcyclohexyl)oxy)methyl)-pyrrolidine-1-carboxylate [Example 47]
,,99%,"COC(=O)N1[C@H](C)C[C@H](NS(=O)(=O)N(C)C)[C@@H]1CO[C@H]1CC[C@H](c2ccc(C#N)c(C)c2)CC1 [Example 64, Methyl (2R,3S,5R)-2-((((1r,4R)-4-(4-cyano-3-methylphenyl)cyclohexyl)oxy)methyl)-3-((N,N-dimethylsulfamoyl)amino)-5-methylpyrrolidine-1-carboxylate]"
,,98%,"COC(=O)N1[C@H](C)C[C@H](NS(=O)(=O)N(C)CCC#N)[C@@H]1CO[C@H]1CC[C@@H](c2cccc(F)c2)CC1 [Example 54, methyl (2R,3S,5R)-3-((N-(2-cyanoethyl)-N-methylsulfamoyl)amino)-2-((((1s,4S)-4-(3-fluorophenyl)cyclohex-yl)oxy)methyl)-5-methylpyrrolidine-1-carboxylate]"
,,102%,"C=C[C@@H]1C[C@H](NS(C)(=O)=O)[C@H](CO[C@H]2CC[C@@H](c3ccccc3)CC2)N1C(=O)OC (relative stereo) [Example 48, methyl (CIS)-3-(methylsulfonamido)-2-((((CIS)-4-phenylcyclohexyl)oxy)methyl)-5-vinylpyrrolidine-1-carboxylate]"
,,101%,"COC(=O)N1[C@H](C)C[C@H](NS(=O)(=O)N(C)CC2CS(=O)(=O)C2)[C@@H]1CO[C@H]1CC[C@@H](c2cccc(F)c2)CC1 [Example 58, methyl (2R,3S,5R)-3-((N-((1,1-dioxidothietan-3-yl)methyl)-N-methylsulfamoyl)amino)-2-((((1s,4S)-4-(3-fluorophenyl)cyclohex-yl)oxy)methyl)-5-methylpyrrolidine-1-carboxylate]"
,,100%,"COC(=O)N1[C@H](C)C[C@H](NS(C)(=O)=O)[C@@H]1CO[C@H]1CC[C@H](c2cc(F)cc(F)c2)CC1 [Example 72, Methyl (2R,3S,5R)-2-((((1r,4R)-4-(3,5-difluorophenyl)cyclohexyl)oxy)methyl)-5-methyl-3-(methylsulfonamido)pyrrolidine-1-carboxylate]"
,101%,,"COC(=O)N1C(C2CC2)C[C@H](NS(C)(=O)=O)C1COC1CCC(c2ccccc2)CC1 (stereo partly drawn) [Example 44, methyl (CIS)-5-cyclopropyl-3-(methylsulfonamido)-2-((((CIS)-4-phenylcyclohexyl)oxy)methyl)pyrrolidine-1-carboxylate]"
37.5 nM,99%,,"COC(=O)N1[C@H](C)C[C@H](NS(C)(=O)=O)[C@@H]1COC1CCC(c2ccccc2)CC1C (stereo partly drawn) [Example 34, methyl (2R,3S,5R)-5-methyl-2-(((2-methyl-4-phenylcyclohexyl)oxy)methyl)-3-(methylsulfonamido)pyrrolidine-1-carboxylate]"
